Measurements: US8263108B2, “Zero-order prolonged release coaxial implants” (Durect Corporation, priority 2001, dated 2012)

Legend:
[1] = In vitro dissolution of cromolyn sodium coaxial implants; type: physicochemical; settings: 50 wt % cromolyn/PCL core, PBS pH 7.4, 37° C.
Experimental: Coaxial rods were produced by operating the two Randcastle extruders simultaneously. The core material (cromolyn/PCL) was fed through the center orifice of the die on the first extruder to form the implant core. […] Individual implants with a diameter of approximately 2 mm were cut to a length of 2 cm. The exposed ends were sealed with the same polymer as the membrane. Cromolyn release was determined in vitro using a simple dissolution test. Individual implants were placed in 4-oz amber jars with 40 mL of buffer (phosphate buffered saline, pH 7.4, with 0.05% sodium azide) and incubated at 37° C. Periodically, aliquots of buffer were removed and replaced with fresh buffer. The cromolyn concentration in each sample was determined by HPLC.

[2] = Release of interferon from implants incubated in phosphate buffered saline; type: physicochemical; settings: 30 vol % NaCl/PCL tubing filled with 20 mg α-interferon suspension in SAIB, ends sealed
Experimental: Using nitrogen gas as the core feed, a mixture comprising 30 vol % NaCl in PCL was extruded as described above through the outer ring of a coaxial die to form tubing having an overall diameter of about 3 mm. Implants containing α-interferon were prepared from the tubing by filling a short length of tubing with a suspension containing 20 mg of α-interferon in sucrose acetate isobutyrate (SAIB) and sealing the ends of the tube.
The implants, when incubated in phosphate buffered saline, released interferon for several days.

| Compound | effect of membrane thickness on release of cromolyn ([1]; 30 vol % cromolyn/PCL membrane (pore-forming agent), FIG. 8) | release from sealed versus unsealed implant ([1]; 30 vol % lactose/PCL membrane, FIG. 9) | duration of interferon release [2] |
| --- | --- | --- | --- |
| O=C(O)c1cc(=O)c2c(OCC(O)COc3cccc4oc(C(=O)O)cc(=O)c34)cccc2o1 [cromolyn, cromolyn sodium] | A thicker polymer membrane causes slower release | the unsealed implant releases faster than the sealed |  |
| α-interferon |  |  | several days |
